Measurements as given in PubChem BioAssay (NCI).
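Five compound concentrations were applied to cells in 96-well plates for 48 hours; endpoints were derived by simple linear interpolation of the resulting dose-response curve. GI50: concentration for 50% inhibition of growth. TGI marks complete inhibition of growth.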

Assays:
Test in all cases: NCI-60 cell line screen, 48 h
ACHN renal = test system: ACHN renal
BT-549 breast = test system: BT-549 breast
EKVX NSCLC = test system: EKVX NSCLC
IGROV1 ovarian = test system: IGROV1 ovarian
NCI-H460 lung = test system: NCI-H460 lung
OVCAR-3 ovarian = test system: OVCAR-3 ovarian
SF-295 CNS = test system: SF-295 CNS
SF-539 CNS = test system: SF-539 CNS
SNB-19 CNS = test system: SNB-19 CNS
SR leukemia = test system: SR leukemia

Structure (SMILES) | TGI (ACHN renal) | TGI (BT-549 breast) | TGI (EKVX NSCLC) | TGI (IGROV1 ovarian) | TGI (NCI-H460 lung) | TGI (OVCAR-3 ovarian) | TGI (SF-295 CNS) | TGI (SF-539 CNS) | TGI (SNB-19 CNS) | TGI (SR leukemia) | GI50 (ACHN renal) | GI50 (EKVX NSCLC) | GI50 (IGROV1 ovarian) | GI50 (OVCAR-3 ovarian) | GI50 (SF-295 CNS) | GI50 (SF-539 CNS) | GI50 (SNB-19 CNS) | GI50 (SR leukemia)
CC1=C(C(=S)Nc2ccc(Cl)c(C(=O)OC(C)C)c2)SCCO1 | 85.9 µM | 37.8 µM | 54.4 µM | 33.1 µM | 44.6 µM | 52.7 µM | 36.4 µM | 38.4 µM | 44.5 µM | – | – | – | – | – | – | – | – | –
CN(C)NC(=O)NC12CC3CC(CC(C3)C1)C2 | > 100 µM | – | > 100 µM | > 100 µM | > 100 µM | – | > 100 µM | > 100 µM | > 100 µM | > 100 µM | – | – | – | – | – | – | – | –
COc1cc(O)c(C(=O)C2Cc3ccccc32)c(OC)c1 (centres undefined) | > 100 µM | – | – | > 100 µM | > 100 µM | – | > 100 µM | > 100 µM | > 100 µM | – | – | – | – | – | – | – | – | –
N/N=C1/C(=O)N(c2ccc(Cl)cc2)C(=O)C(=O)C1c1nc2ccccc2s1 (centres undefined) | > 100 µM | – | > 100 µM | > 100 µM | > 100 µM | > 100 µM | > 100 µM | > 100 µM | > 100 µM | – | – | – | – | – | – | – | – | –
NN=C1/C(=C\c2ccccc2)CCC/C1=C/c1ccccc1 | > 100 µM | – | 89.1 µM | > 100 µM | > 100 µM | > 100 µM | > 100 µM | > 100 µM | > 100 µM | – | – | – | – | – | – | – | – | –
COC1=CC(=O)C2(C=C1OC)OC[C@H]1Oc3c(ccc4c3C=CC(C)(C)O4)C(=O)[C@H]12 (some centres undefined) | > 100 µM | – | > 100 µM | > 100 µM | > 100 µM | > 100 µM | – | > 100 µM | > 100 µM | – | – | – | – | – | – | – | – | –
O=C1c2c(c3c4ccccc4n(CC4CO4)c3c3[nH]c4ccccc4c23)C(=O)N1Cc1ccccc1 (centres undefined) | – | – | – | > 100 µM | > 100 µM | > 100 µM | > 100 µM | > 100 µM | > 100 µM | > 100 µM | – | – | – | – | – | – | – | –
CCN(CC)c1ccc(N=Nc2ccc(-c3nc4cccnc4s3)cc2)cc1 | > 100 µM | – | > 100 µM | > 100 µM | > 100 µM | > 100 µM | > 100 µM | – | > 100 µM | > 100 µM | – | – | – | – | – | – | – | –
CSCSCC(CO)NC(=O)/C=C/c1c(C)[nH]c(=O)[nH]c1=O (centres undefined) | > 100 µM | – | > 100 µM | – | > 100 µM | > 100 µM | > 100 µM | > 100 µM | > 100 µM | > 100 µM | – | – | – | – | – | – | – | –
CCCCCCNC(=O)CCN(C(=O)O)S(=O)(=O)c1ccc(NC(=O)c2ccccc2)cc1 | > 100 µM | – | > 100 µM | > 100 µM | > 62.2 µM | > 100 µM | > 100 µM | 38.4 µM | > 100 µM | 53.8 µM | – | – | – | – | – | – | – | –
Cc1ccc2nc(CN(CCN(Cc3nc4ccc(C)cc4[nH]3)Cc3nc4ccc(C)cc4[nH]3)Cc3nc4ccc(C)cc4[nH]3)[nH]c2c1 | 2.94 µM | – | 2.75 µM | 3.35 µM | – | 3.31 µM | 2.89 µM | 3.16 µM | 3.07 µM | 3.22 µM | 1.6 µM | 1.44 µM | 1.82 µM | 1.84 µM | 1.55 µM | 1.77 µM | 1.7 µM | 1.49 µM
